In ChEMBL document CHEMBL4000251, “Discovery of 4-chloro-2-(2,4-dichloro-6-methylphenoxy)-1-methyl-7-(pentan-3-yl)-1H-benzimidazole, a novel CRF1 receptor antagonist” (Bioorg Med Chem, 2017):

Key:
[1] = Oral bioavailability in rat at 1 mg/kg; format: ADME, organism-based; details: in vivo
[2] = AUC in rat at 1 mg/kg, po; format: ADME, organism-based; details: in vivo

SMILES: CCC(CC)c1ccc(Cl)c2nc(Oc3c(C)cc(Cl)cc3Cl)n(C)c12
- bioavailability [1]: 30.8%
- AUC [2]: 94.6 ng·h/mL
